Measurements reported in patent US10391115B2, “Anticancer adjuvant composition containing RIP3 expression promoter as active ingredient, method for screening for anticancer adjuvant enhancing sensitivity of anticancer drug by promoting RIP3 expression, and method for monitoring sensitivity of anticancer drug” (AJOU UNIVERSITY INDUSTRY-ACADEMIC COOPERATION FOUNDATION, priority 2014, dated 2019).

Key:
HT-29 cells = experiment: Viability assay (MTT) of RIP3-silenced HT-29 cells with anticancer drugs; format: cell-based, human; settings: doxorubicin 2.5 and 5 uM, etoposide 50 and 100 uM, 48 hours
Procedure: HT-29 cells (American Tissue Culture Collection) were cultured in a 37° C. incubator using DMEM medium supplemented with penicillin-streptomycin (10 IU/ml) and 10% FBS. The shRNAi double strand used in the present invention was commercially synthesized by Sigma-Aldrich. The shRNA used in the present invention was designed so as to target the coding region of a human RIPK3 mRNA sequence (NCBI Reference sequence NM_006871).
First, cultured HT-29 cells were dispensed in a 35-mm dish at a density of 2×10^5 cells. On the next day, the cells were infected with shRNA particles together with polybrene (10 ug/ml) according to the protocol's instruction.
In the present invention, in order to examine whether the RIP3 gene is associated with anticancer drug sensitivity, HT-29 cells infected with RIP3 shRNA were treated with varying concentrations of doxorubicin and etoposide, and then the cell viability of the cancer cells was measured. Particularly, HT-29 cells infected with RIP3 shRNA were treated with 2.5 uM and 5 uM of doxorubicin and 50 uM and 100 uM of etoposide, and then incubated for 48 hours. After the medium was replaced with a fresh medium containing 0.1 mg of MTT (3-([4,5-dimethylthiazol-2-yl]-2,5-diphenyltetrazolium bromide), the cells were further incubated for 2 hours. Colorimetric analysis was performed on a precipitate obtained by reducing a tetrazolium salt, in which viable cells is dissolved, into purple formazan crystal. Next, the medium was removed, and the produced formazan crystal was dissolved in 500 ul of DMSO, and the absorbance was measured using an ELISA reader at 570 nm. Cell viability was expressed as a percentage relative to the control taken as 100% viability.

T47D breast cancer cells = experiment: Viability assay (MTT) of RIP3-silenced T47D cells with anticancer drugs; format: cell-based, human; settings: 48 hours; for anticancer drug resistance (MTT assay): RIP3-knocked down T47D test group vs control group; for cell killing (MTT assay): control group T47D
Procedure: In order to examine whether RIP3 also has an effect on breast cancer cells, RIP3-expressing T47D cells were used. First, the cells were infected with RIP3 in the same manner as described in Example 6.
In order to examine whether RIP3 increases anticancer drug sensitivity in T47D breast cancer cells, an MTT assay was performed. A control group and a RIP3-knocked down test group were incubated with doxorubicin, etoposide and taxol at the concentrations shown in FIG. 11 (right) for 48 hours.

HeLa cell lines = experiment: Sensitization of cancer cell death by combined treatment with demethylating agent and anticancer drug; settings: pretreated two times for 4 days to induce RIP3 expression, then anticancer drug
[1] = tested on: RIP3 expression in DLD-1 colorectal cancer cell line; experiment: RIP3 expression by demethylating agent 5-AZA, Western blotting; format: cell-based; settings: DLD-1 not expressing RIP3; various concentrations of 5-AZA, treated two times for 4 days
Procedure: (§1) Cells were lysed in M2 buffer. Equal amounts of cell extracts were analyzed by SDS-PAGE and immunoblotting, and blots were visualized by enhanced chemiluminescence (ECL, Amersham).

[2] = tested on: RIP3 expression in cancer cell lines (HeLa, MDA-MB231, BT549); experiment: RIP3 expression by demethylating agent 5-AD, Western blotting; format: cell-based; settings: MDA-MB231, BT549 that express no RIP3, 5-AD 2 uM, treated two times for 4 days
Procedure: as §1

[3] = tested on: HeLa cell line (non-target / shRIP3); experiment: Sensitization by 5-AD plus anticancer drug in non-target and shRIP3 HeLa cell lines (immunoblotting, MTT assay); format: cell-based, human
Procedure: A MISSION short-hairpin RNA (shRNA) plasmid that targets the coding region or 3′ UTR of hRIP3 mRNA (NM_006871) or a non-target control sequence (NM-027088) were obtained from Sigma-Aldrich. A Lentivirus plasmid was transfected into 293T cells (System Biosciences, LV900A-1) using Lipofectamine 2000 (Invitrogen, 11668019). Pseudoviral particles were collected at 2 days after transfection of the Lentivirus plasmid and infected into various cancer cells in the presence of polybrene (10 μg/mL). At 2 days after infection, infected cells were selected with puromycin, and RIP3 knockdown was confirmed by immunoblotting. Cells without endogenous RIP3 were afterwards treated with 5-AD for 4 days and analyzed by immunoblotting.
Unlike a non-target cell line, in the case of a shRIP3 cell line, RIP3 expression in the cell line was inhibited by shRNA, even though the cell line was treated with 5-AD. Thus, the effect of RIP3 on sensitization of the cell line by a combined treatment with the anticancer drug and the demethylating agent could be confirmed. […] In addition, after the same number of cells seeded, the sensitization effect by the combined treatment with the anticancer drug was analyzed using a cell viability assay (MTT assay) (FIG. 6).
Because the demethylating agent (5-AD or 5-AZA) is not a specific drug for a certain protein, it may cause expression of various proteins in addition to RIP3.

[4] = RIP3 knocked down with shRNA HT-29
[5] = control group (non-target shRNA) HT-29

Compound: COc1cc([C@@H]2c3cc4c(cc3[C@@H](O[C@@H]3O[C@@H]5CO[C@@H](C)O[C@H]5[C@H](O)[C@H]3O)[C@H]3COC(=O)[C@H]23)OCO4)cc(OC)c1O [etoposide]
- cell viability (MTT) (HT-29 cells; [4]): the cell viability increased compared to that of the control group
- cell viability (MTT) (HT-29 cells; [5]): the cell viability decreased dependently on the concentration
- anticancer drug resistance (MTT assay) (T47D breast cancer cells): significantly increased compared to that of the control group
- cell killing (MTT assay) (T47D breast cancer cells): killed dependently on the concentration

Compound: Nc1ncn([C@@H]2O[C@H](CO)[C@@H](O)[C@H]2O)c(=O)n1 [5-AZA, 5-azacytidine]
- sensitization to cell death by anticancer drug after demethylating agent pretreatment (HeLa cell lines): the effect of sensitizing the cancer cell line to cell death was obtained
- RIP3 expression (Western blotting) [1]: RIP3 expression was induced

Compound: CC(=O)O[C@H]1C(=O)[C@@]2(C)[C@H]([C@H](OC(=O)c3ccccc3)[C@]3(O)C[C@H](OC(=O)[C@H](O)[C@@H](NC(=O)c4ccccc4)c4ccccc4)C(C)=C1C3(C)C)[C@]1(OC(C)=O)CO[C@@H]1C[C@@H]2O [taxol]
- anticancer drug resistance (MTT assay) (T47D breast cancer cells): significantly increased compared to that of the control group
- cell killing (MTT assay) (T47D breast cancer cells): killed dependently on the concentration

Compound: Nc1ncn([C@H]2C[C@H](O)[C@@H](CO)O2)c(=O)n1 [5-AD, 5-aza-2′-deoxycytidine]
- sensitization to cell death by anticancer drug after demethylating agent pretreatment (HeLa cell lines): sensitized to anticancer drug
- RIP3 expression (Western blotting) [2]: RIP3 expression was induced
- sensitization of cancer cell death by combined treatment with anticancer drug ([3]; non-target HeLa cell line, 5-AD treated two times for 4 days): showed the effect of sensitizing the cancer cell death by RIP3 expression
- sensitization of cancer cell death by combined treatment with anticancer drug (cell viability assay) ([3]; shRIP3 HeLa cell line that expresses no RIP3): the sensitization effect was inhibited
- RIP3 expression after 5-AD treatment ([3]; shRIP3 HeLa cell line, 5-AD treated two times for 4 days): RIP3 was not expressed

Compound: COc1cccc2c1C(=O)c1c(O)c3c(c(O)c1C2=O)C[C@@](O)(C(=O)CO)C[C@@H]3O[C@H]1C[C@H](N)[C@H](O)[C@H](C)O1 [doxorubicin]
- cell viability (MTT) (HT-29 cells; [4]): the cell viability increased compared to that of the control group
- cell viability (MTT) (HT-29 cells; [5]): the cell viability decreased dependently on the concentration
- anticancer drug resistance (MTT assay) (T47D breast cancer cells): significantly increased compared to that of the control group
- cell killing (MTT assay) (T47D breast cancer cells): killed dependently on the concentration
